Bridge positions count the residues as written; N and C are the ends. Peptide text beside a SMILES is read from it.
Target: T1, mTEAD4 (Mus musculus, UniProt Q62296)
T1 construct: Mouse TEAD4(210–427) cDNA fused with a 6x His-tag and a 3C protease cleavage site; 6x His-tag; 3C protease cleavage site; made in house; host or cells: E. coli BL21 DE3 RIL(K+)
Assay: SPR binding to immobilised mTEAD4
Conditions: mTEAD4 amine-coupled on CM5, multi-cycle, steady-state fit 1:1 model, 10 mM HEPES 150 mM NaCl 0.05% Tween-20 pH 7.4, 0.3% DMSO, 20 °C, Fig. 1 values n = 1 replicate
Experimental: Sensor chips Series S CM5 (Research grade) were obtained from GE Healthcare. Prior to use, the sensor chips were equilibrated at room temperature for 15 min to prevent water condensation on the detector side of the sensor chip surface. A running buffer was prepared composed of 10 mM HEPES, 150 mM NaCl, and 0.05% (w/v) Tween-20, pH 7.4, and the system was equilibrated at 20 °C using a flow rate of 30 µL min^−1 after docking of the sensor chip. Ligand binding experiments have been performed applying the concept of multi-cycle kinetics. A contact time of 45 s was selected, followed by a 6-min dissociation phase to allow for complete dissociation of the analyte prior to the next cycle. […] Typically, seven concentrations of the analytes have been examined applying a threefold dilution pattern with 30 µM as top concentration. For the analysis, five running buffer blanks were injected to equilibrate the instrument. […] The carboxyl-dextran surface was activated for 7 min with 0.05 M NHS and 0.2 M EDC, followed by an injection of the proteins in 10 mM MES pH 6.4 at a concentration of 30–50 µg mL^−1. […] This was followed by a deactivation of the residual esters by injecting a solution of 0.5 M ethanolamine pH 8.0 for 7 min before engaging in ligand binding experiments. Reference surfaces were prepared accordingly, omitting the injection of protein over the activated reference surface.

T1 sequence (Q62296 210-427): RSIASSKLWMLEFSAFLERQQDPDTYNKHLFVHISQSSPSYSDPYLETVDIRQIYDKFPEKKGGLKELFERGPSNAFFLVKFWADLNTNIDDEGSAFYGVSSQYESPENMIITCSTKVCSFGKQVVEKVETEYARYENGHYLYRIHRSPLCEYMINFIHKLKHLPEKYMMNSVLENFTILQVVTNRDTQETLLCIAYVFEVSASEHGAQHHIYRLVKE

Kd [nM] | SMILES
2000 ± 140 | CC[C@H](C)[C@@H]1NC(=O)[C@H](CCC(N)=O)NC(=O)[C@H](C)NC(=O)[C@H](Cc2c[nH]c3ccccc23)NC(=O)[C@H]([C@@H](C)O)NC(=O)[C@H](CC(=O)O)NC(=O)CNC(=O)[C@H](CC(C)C)NC(=O)[C@H](C)NC(=O)[C@H](CCCCN)NC(=O)[C@H](C)NC(=O)[C@H](Cc2ccccc2)NC(=O)[C@H](Cc2c[nH]cn2)NC(=O)[C@H](CC(=O)O)NC(=O)[C@@H](NC(=O)[C@@H](NC(=O)[C@H](CO)NC(C)=O)C(C)C)CCC(=O)NCCCC[C@@H](C(=O)N[C@@H](C)C(=O)N[C@@H](C)C(N)=O)NC1=O [compound 24] (Ac-SVEDHFAKALGDTWAQIKAA-NH2; lactam 3-18)
1500 ± 370 | CC[C@H](C)[C@@H]1NC(=O)[C@H](CCC(N)=O)NC(=O)[C@H](CC(C)C)NC(=O)[C@H](Cc2c[nH]c3ccccc23)NC(=O)[C@H]([C@@H](C)O)NC(=O)[C@H](CC(=O)O)NC(=O)CNC(=O)[C@H](CC(C)C)NC(=O)[C@H](C)NC(=O)[C@H](CCCCN)NC(=O)[C@H](C)NC(=O)[C@H](Cc2ccccc2)NC(=O)[C@H](Cc2c[nH]cn2)NC(=O)[C@H](CC(=O)O)NC(=O)[C@@H](NC(=O)[C@H](C)NC(=O)[C@H](CO)NC(C)=O)CCC(=O)NCCCC[C@@H](C(=O)N[C@@H](C)C(=O)N[C@@H](C)C(N)=O)NC1=O [compound 15] (Ac-SAEDHFAKALGDTWLQIKAA-NH2; lactam 3-18)
3200 | CC[C@H](C)[C@@H]1NC(=O)[C@H](CCC(N)=O)NC(=O)[C@H](CC(C)C)NC(=O)[C@H](Cc2c[nH]c3ccccc23)NC(=O)[C@H]([C@@H](C)O)NC(=O)[C@H](CC(=O)O)NC(=O)CNC(=O)[C@H](CC(C)C)NC(=O)[C@H](C)NC(=O)[C@H](CCCCN)NC(=O)[C@H](C)NC(=O)[C@H](Cc2ccccc2)NC(=O)[C@H](Cc2c[nH]cn2)NC(=O)[C@H](CC(=O)O)NC(=O)[C@@H](NC(=O)[C@@H](NC(=O)[C@H](CO)NC(C)=O)C(C)C)CC(=O)NCCCC[C@@H](C(=O)N[C@@H](C)C(=O)N[C@@H](C)C(N)=O)NC1=O [4C] (Ac-SVDDHFAKALGDTWLQIKAA-NH2; lactam 3-18)
